Data on three compounds can be found in patent US20130131174A1, “INJECTABLE PHARMACEUTICAL FORMULATION OF MELPHALAN” (ERIOCHEM, priority 2010, published 2013).

A short description of data set [1]: pH of lyophilized melphalan after reconstitution, dilution in normal saline solution and neutralization with trisodium citrate. The class given is physicochemical. The note with it: 5 mg/ml of melphalan hydrochlorate with 2.5 molecules of hydrogen chloride per melphalan mol. The procedure: A vial containing the solid composition of lyophilized melphalan was reconstituted with 3.2 ml of normal saline solution, producing a melphalan solution at 5.40 mg/ml of pH 1.80. An aliquot of 0.8 ml was taken and added with another of 4.2 ml of normal saline solution, producing 0.86 mg/ml of pH 2.33. It was neutralized with 0.20 ml of a solution of 100 mg/ml of trisodium citrate dihydrate, producing a final pH 5.44.
A vial containing the solid composition of lyophilized melphalan was reconstituted with 3.2 ml of normal saline solution, producing a melphalan solution at 6.84 mg/ml of pH 2.20. An aliquot of 0.8 ml was taken and added with another of 4.2 ml of normal saline solution, producing 1.09 mg/ml of pH 2.20. It was neutralized with 0.20 ml of a solution of 100 mg/ml of trisodium citrate dihydrate, producing a final pH of 5.59.

Data set [2] in a line: Solubility of melphalan in pharmaceutical organic solvents. The class given is physicochemical. To be noted: for Solubility in DMSO: hydrochlorate prepared by addition of three moles of hydrochloric acid at 37%. As for the experimental part: To investigate the possibility of elaborating malphalan lyophilizates from pharmaceutical organic solvents, it was determined that base melphalan as well as its hydrochlorate are not soluble in terbutylic alcohol. Instead, even though base malphalan is not soluble in DMSO, its hydrochlorate is soluble up to close to 10% p/v, prepared by the addition of three moles of hydrochloric acid as a concentrated acid at 37%.
Base melphalan is soluble in glacial acetic acid, preferably free of acetic anhydride, in up to close to 10% p/v; likewise as melphalan hydrochlorate, mixtures of acetic acid and aqueous solution of hydrochloric acid at 37% p/p to dissolve base melphalan may also be used, or else hydrogen chloride solution in glacial acetic acid.

A short description of data set [3]: Stability at 25° C. of melphalan solution at 10 mg/ml in glacial acetic acid, purity by HPLC. The class given is physicochemical. The procedure: To study stability at 25° C. of a melphalan solution at 10 mg/ml in glacial acetic acid in the absence of hydrochloric acid, 830 mg base melphalan Lot 20-01-2010 were used and the results of the following table were obtained. This solution is not comprised in the present invention, it is only introduced with the aim of comparing this option without hydrochloric acid presenting higher concentration of impurities than the composition of lyophilized melphalan on the invention.

The nature of data set [4]: Purity by HPLC of melphalan lyophilizates vs. their API (degradation on lyophilization). The procedure: Purity determinations of melphalan in its different compositions were analyzed by HPLC applying the method Pharmaeuropa, Vol 21, No. 3, July 2009, pages 425-28, for the following examples:
Simultaneously, the melphalan solution was filtered and measured in doses to 10 mg/ml in glacial acetic acid with 3 moles of hydrochloric acid from hydrochloric acid at 37% w/we, which used base melphalan Lot 20-01-2010, in 5 ml vials of the tube flask type, 20 mm mouth, containing 2 ml solution, and it was lyophilized in a Virtis Advantage Lyophilizer, freezing at −50° C. for 5 hours, starting vacuum at the same temperature, then bringing the shelf to −20° C., then to 0° C. and finally drying at 5° C., with a final vacuum of 25 microbars.
Simultaneously, the melphalan solution was filtered and measured in doses to 10 mg/ml in glacial acetic acid, which used base melphalan Lot 20-01-2010, in 5 ml vials of the tube flask type, 20 mm mouth, containing 2 ml solution, and it was lyophilized in a Virtis Advantage Lyophilizer, freezing at −50° C. for 5 hours, starting vacuum at the same temperature, then bringing the shelf to −20° C., then to 0° C. and finally drying at 25° C., with a final vacuum of 25 microbars.

The conditions of data set [5]: cited from earlier work.
[6] abbreviates: API before dissolution, listed as API.
Where [7] appears, read: API or lyophilizate, listed as API.
The mark [8] stands for this setting: API or lyophilizate, listed as API-Mel 143-09.

SMILES strings stand for the structures. Several values for one entry are separate records, joined by “and”; a condition that tells them apart may be missing. Equal entries are not always repeated.

As to `N[C@@H](Cc1ccc(N(CCCl)CCCl)cc1)C(=O)O` [melphalan hydrochlorate], the “pH of an aqueous solution” value in data set [1] is “approximately 1.9”. Also, the “Solubility in DMSO” value in data set [2] (listed as its hydrochlorate) is recorded as about 10 % p/v.
`N[C@@H](Cc1ccc(N(CCCl)CCCl)cc1)C(=O)O` [Melphalan, p-(bis-2-chloroethyl)-amino-L-phenylalanine]: in data set [3] (API before dissolution), the “Impurity C” value was 0.02 % of area, the “Impurity D” value is recorded as 0.09 % of area, the “Impurity F” value is reported as 0.05 % of area and the “Impurity G” value is recorded as 2.05 % of area. Besides, in data set [3] (API before dissolution), the “Impurity I” value is given as 0.03 % of area, the “Impurity J” value is 0.11 % of area, the “Melphalan Purity” value is listed as 97.45 % of area and the “Total of Impurities” value is on record as 2.55 % of area. Further, in data set [3] (setting [6]), the “Max. Imp. Disposab” value is 0.02 (TRR 0.81) % of area and 0.04 % of area; the “Other Imp. Disposab” value was 0.04 (TRR 1.58) % of area and 0.02 % of area. Besides, the “Stability in solution of 10 mg/ml in acetic acid by HPLC” value in data set [3] (hours in solution at ambient temperature / 25° C.) was “perfectly stable”. In addition, in data set [4] (API or lyophilizate), the “Impurity C” value was under 0.05 % w/w, the “Impurity F” value is reported as under 0.05 % w/w and the “Impurity I” value was under 0.05 % w/w. In addition, in data set [4] (setting [7]), the “Impurity D” value was 0.05% w/w and <0.05 % w/w; the “Impurity G” value is 1.04% w/w and 0.97% w/w; the “Impurity J” value was 0.05% w/w and <0.05 % w/w; the “Máx. Imp. Dispos” value is 0.05% w/w and 0.07% w/w. Further, the “Total of Impurities” value in data set [4] (setting [7]) is 1.19% w/w and 1.04% w/w. Further, in data set [4] (setting [8]), the “Impurity D” value is 0.1 % w/w, the “Impurity G” value is recorded as 0.9 % w/w, the “Máx. Imp. Dispos” value was determined as 0.1 % w/w and the “Total of Impurities” value came out at 1.2 % w/w. Further, the “Degradation of the API on non-aqueous lyophilization” value in data set [4] (from acetic acid with three moles of hydrochloric acid per mol) was “lower than 0.2 % in area”. Also, the “Solubility in terbutylic alcohol” value in data set [2] was “not soluble”. In data set [2] (listed as base malphalan), the “Solubility in DMSO” value was “not soluble”. Moreover, the “Solubility in glacial acetic acid” value in data set [2] (preferably free of acetic anhydride) was about 10 % p/v.
As to `CC(O)CO` (stereo not shown) [propylene glycol], the Half plasma life in data set [5] (individuals with normal renal function) is 5 h. In data set [5] (rest metabolized by the liver), the Excreted by kidneys is listed as 12-45%.
